Experiments:
Test in all cases: KINOMEscan competitive binding, whole panel
panel of 203 kinases [1] = molecular target: T1, panel of 203 kinases (Homo sapiens, UniProt Q9H1R3); conditions: 10 µM, n=1; kinase MYLK2; read-out: Percent inhibition MYLK2
T1 construct: purchased DiscoverX (KINOMEscan)
In short: (§1)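 Kinases were expressed as T7 bacteriophage fusions, and test compounds competed with immobilized ATP-site probe ligands for binding. Kinase remaining bound to the solid-support probe was quantified, and values are given as percentage inhibition.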

panel of 203 kinases [2] = molecular target: T2, panel of 203 kinases (Homo sapiens, UniProt Q13188); conditions: 10 µM, n=1; kinase MST2; read-out: Percent inhibition MST2
T2 construct: purchased DiscoverX (KINOMEscan)
T2 sequence (Q13188 1-491): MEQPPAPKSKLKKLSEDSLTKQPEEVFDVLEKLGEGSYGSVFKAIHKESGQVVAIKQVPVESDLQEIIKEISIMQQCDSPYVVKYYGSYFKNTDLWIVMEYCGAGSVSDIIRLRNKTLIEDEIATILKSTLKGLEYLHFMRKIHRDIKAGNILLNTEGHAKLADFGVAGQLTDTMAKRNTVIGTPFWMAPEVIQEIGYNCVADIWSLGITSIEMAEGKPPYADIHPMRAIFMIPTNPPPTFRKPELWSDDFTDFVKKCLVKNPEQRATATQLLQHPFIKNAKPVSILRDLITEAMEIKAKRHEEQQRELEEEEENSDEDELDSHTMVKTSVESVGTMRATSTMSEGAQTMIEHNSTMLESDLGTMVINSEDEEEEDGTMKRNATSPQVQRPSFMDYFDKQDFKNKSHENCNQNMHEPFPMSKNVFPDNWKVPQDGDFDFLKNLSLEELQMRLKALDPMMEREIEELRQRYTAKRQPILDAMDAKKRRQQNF
In short: as §1

panel of 203 kinases [3] = molecular target: T3, panel of 203 kinases (Homo sapiens, UniProt Q9HAZ1); conditions: 10 µM, n=1; kinase CLK4; read-out: Percent inhibition CLK4
T3 construct: purchased DiscoverX (KINOMEscan)
In short: as §1

panel of 203 kinases [4] = molecular target: T4, panel of 203 kinases (Homo sapiens, UniProt P19784); conditions: 10 µM, n=1; kinase CSNK2A2; read-out: Percent inhibition CSNK2A2
T4 construct: purchased DiscoverX (KINOMEscan)
In short: as §1

panel of 203 kinases [5] = molecular target: T5, panel of 203 kinases (Homo sapiens, UniProt Q9UM73); conditions: 10 µM, n=1; kinase ALK; read-out: Percent inhibition ALK
T5 construct: purchased DiscoverX (KINOMEscan)
In short: as §1

panel of 203 kinases [6] = molecular target: T6, panel of 203 kinases (Homo sapiens, UniProt Q8N752); conditions: 10 µM, n=1; kinase CSNK1A1L; read-out: Percent inhibition CSNK1A1L
T6 construct: purchased DiscoverX (KINOMEscan)
T6 sequence (Q8N752 1-337): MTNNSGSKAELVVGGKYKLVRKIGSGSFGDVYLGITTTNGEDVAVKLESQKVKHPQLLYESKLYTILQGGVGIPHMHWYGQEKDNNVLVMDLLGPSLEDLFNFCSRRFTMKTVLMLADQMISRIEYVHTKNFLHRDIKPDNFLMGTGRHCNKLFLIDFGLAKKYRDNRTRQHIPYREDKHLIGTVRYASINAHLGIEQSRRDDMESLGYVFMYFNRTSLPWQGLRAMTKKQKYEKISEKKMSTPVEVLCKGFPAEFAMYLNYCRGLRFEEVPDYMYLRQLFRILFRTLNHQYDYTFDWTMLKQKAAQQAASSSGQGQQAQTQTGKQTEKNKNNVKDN
In short: as §1

panel of 203 kinases [7] = molecular target: T7, panel of 203 kinases (Homo sapiens, UniProt Q9UQB9); conditions: 10 µM, n=1; kinase AURKC; read-out: Percent inhibition AURKC
T7 construct: purchased DiscoverX (KINOMEscan)
T7 sequence (Q9UQB9 1-309): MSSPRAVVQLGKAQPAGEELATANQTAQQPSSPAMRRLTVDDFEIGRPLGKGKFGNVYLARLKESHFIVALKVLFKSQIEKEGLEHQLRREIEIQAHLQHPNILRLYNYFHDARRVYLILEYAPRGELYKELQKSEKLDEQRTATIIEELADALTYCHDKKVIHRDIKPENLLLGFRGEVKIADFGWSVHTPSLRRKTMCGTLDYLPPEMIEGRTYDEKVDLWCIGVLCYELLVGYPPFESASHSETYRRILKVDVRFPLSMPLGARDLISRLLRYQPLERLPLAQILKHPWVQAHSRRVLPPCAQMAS
In short: as §1

panel of 203 kinases [8] = molecular target: T8, panel of 203 kinases (Homo sapiens, UniProt P08631); conditions: 10 µM, n=1; kinase HCK; read-out: Percent inhibition HCK
T8 construct: purchased DiscoverX (KINOMEscan)
In short: as §1

panel of 203 kinases [9] = molecular target: T9, panel of 203 kinases (Homo sapiens, UniProt P41240); conditions: 10 µM, n=1; kinase CSK; read-out: Percent inhibition CSK
T9 construct: purchased DiscoverX (KINOMEscan)
In short: as §1

panel of 203 kinases [10] = molecular target: T10, panel of 203 kinases (Homo sapiens, UniProt Q9UEE5); conditions: 10 µM, n=1; kinase DRAK1; read-out: Percent inhibition DRAK1
T10 construct: purchased DiscoverX (KINOMEscan)
T10 sequence (Q9UEE5 1-414): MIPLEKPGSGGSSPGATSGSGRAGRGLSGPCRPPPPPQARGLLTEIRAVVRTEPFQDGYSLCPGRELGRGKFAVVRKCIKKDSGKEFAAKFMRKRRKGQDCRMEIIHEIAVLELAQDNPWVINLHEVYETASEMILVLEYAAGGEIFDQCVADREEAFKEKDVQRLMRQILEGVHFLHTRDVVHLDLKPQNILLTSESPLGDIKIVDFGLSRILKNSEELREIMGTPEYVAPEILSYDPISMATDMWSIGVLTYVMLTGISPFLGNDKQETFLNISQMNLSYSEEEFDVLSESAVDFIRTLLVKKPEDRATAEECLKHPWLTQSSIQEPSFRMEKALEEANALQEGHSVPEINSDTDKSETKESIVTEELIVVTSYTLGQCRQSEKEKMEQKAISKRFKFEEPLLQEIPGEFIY
In short: as §1

SMILES	inhibition at 10 µM (panel of 203 kinases [1])	inhibition at 10 µM (panel of 203 kinases [2])	inhibition at 10 µM (panel of 203 kinases [3])	inhibition at 10 µM (panel of 203 kinases [4])	inhibition at 10 µM (panel of 203 kinases [5])	inhibition at 10 µM (panel of 203 kinases [6])	inhibition at 10 µM (panel of 203 kinases [7])	inhibition at 10 µM (panel of 203 kinases [8])	inhibition at 10 µM (panel of 203 kinases [9])	inhibition at 10 µM (panel of 203 kinases [10])
Cc1ccc(O)cc1Nc1ccnc(Nc2cccc(C(N)=O)c2)n1 [Compound 3]	83.2%	94.4%	0%	0%	0%	99.8%	0%	99.8%	100%	0%
Cc1ccc(O)cc1N(C)c1ccnc(Nc2cccc(S(N)(=O)=O)c2)n1 [Compound 4]	0%	99.2%	0%	0%	0%	100%	0%	99.8%	100%	0%
CN1CCN(c2ccc(Nc3nccc(-c4cnn5ncccc45)n3)cc2C#N)CC1 [Compound 1]	96.8%	100%	99.5%	96.3%	99.1%	100%	96.5%	0%	83%	100%
Clc1ccc(Nc2ncc(-c3ccccc3)s2)cc1 [Compound 10]	0%	0%	0%	0%	0%	0%	0%	0%	0%	0%
Nc1ncc2c(-c3ccncc3)c[nH]c2n1 [Compound 11]	84.9%	86.8%	93.4%	0%	0%	70.7%	0%	66.9%	0%	92.8%
Fc1cccc(COc2ccc(Nc3ncnc4c3CN(CCN3CCOCC3)CC4)cc2Cl)c1 [Compound 6]	0%	0%	0%	0%	0%	0%	0%	0%	0%	0%
COc1ccc(Nc2nccc(-c3cnn4ncccc34)n2)cc1 [Compound 2]	80.5%	89.9%	98.7%	74.2%	94.8%	89.7%	91.1%	0%	0%	98.4%
C[C@@H](Oc1cc(-c2cnc3ccccn23)sc1C(N)=O)c1ccccc1Cl [Compound 8]	66.5%	81%	81%	95.2%	0%	0%	96%	0%	0%	86.1%
COc1cc(Nc2nccc(-c3sc(N)nc3-c3cccc(NC(=O)c4c(F)cccc4F)c3)n2)cc(OC)c1OC [Compound 7]	97%	99.9%	0%	0%	0%	0%	85.7%	99.7%	100%	0%
c1ccc(COc2cccc(-c3ccnc4[nH]ccc34)c2)cc1 [Compound 9]	0%	0%	0%	0%	0%	0%	0%	0%	0%	0%
